Key:
subjects with MDD [1] = assay: Treatment-emergent adverse events, full safety analysis set; type: in vivo, human
[2] = Body weight by treatment group; type: in vivo, human
Description: Treatment with crystalline Form I of aticaprant, crystalline Form II of aticaprant, crystalline Form III of aticaprant, or amorphous aticaprant as described herein has several advantages over the treatments in the art. […] As used herein, the term “weight gain” refers to an increase in the weight of patient, relative to the weight of the patient before taking crystalline Form I of aticaprant, crystalline Form II of aticaprant, crystalline Form III of aticaprant, or amorphous aticaprant or the weight of the patient that is assessed at the time of the initial administration of the crystalline Form I of aticaprant, crystalline Form II of aticaprant, crystalline Form III of aticaprant, or amorphous aticaprant. In certain embodiments, the patient may actually see a decrease in overall weight, relative to the weight of the patient before taking crystalline Form I of aticaprant, crystalline Form II of aticaprant, crystalline Form III of aticaprant, or amorphous aticaprant.
At the lead-in baseline timepoint, the mean weight for subjects in the placebo group was 76.17 kg compared to 78.66 in the aticaprant group. After 6 weeks in the double-blind treatment phase, the mean weight in the placebo group was 75.75 kg compared to 78.57 kg in the aticaprant group. […] This is unexpected because other adjunctive treatments for MDD result in a mean weight increase. See, Thase M, et al. J Clin Psych. 2015: 76 (9), 1224-1231; Thase, J Clin Psych. 2015, 76 (9): 1232-1240; El Khalili, Int J Neuropsychopharmacol. 2010, 13, 917-932; Marcus, J. Clin. Psychopharmacol. […] Nashville, Tenn, ACNP, 2008; Earley, American College of Neuropsychopharmacology, 2007, Annual Meeting Abstracts (Boca Raton, Fla, Dec. 9-13, 2007). Nashville, TN, ACNP, 2007). See, Table 65.

subjects with MDD [3] = assay: MADRS total score, adjunctive aticaprant vs placebo in MDD (Example 8); conditions: for MADRS Total Score: Mean Change from Baseline (SD): aticaprant 10 mg adjunctive to SSRI/SNRI; for MADRS: LSMeans difference estimate, supplementary MMRM analysis (COVID-19 impact): data collected prior to 15 Mar. 2020
subjects with MDD [4] = assay: ASEX sexual functioning score; type: in vivo, human
Description: As used herein, the term “decrease in sexual functioning” refers to reducing or lessening of one or more components of the human sex drive, i.e., sexual functioning. In some embodiments, the sexual functioning comprises one or more of sexual drive, sexual arousal, vaginal lubrication, erection, orgasm achievement, or orgasm satisfaction. In other embodiments, the sexual functioning comprises sexual drive. In further embodiments, the sexual functioning comprises vaginal lubrication satisfaction. In further embodiments, the sexual functioning comprises orgasm achievement. In yet other embodiments, the sexual functioning comprises orgasm satisfaction. Desirably, the patient's sexual functioning is assessed at the time of initial administration of the crystalline Form I of aticaprant, crystalline Form II of aticaprant, crystalline Form III of aticaprant, or amorphous aticaprant. Thus, the patient's sexual functioning while taking crystalline Form I of aticaprant, crystalline Form II of aticaprant, crystalline Form III of aticaprant, or amorphous aticaprant can be compared to the patient's sexual functioning before administration of crystalline Form I of aticaprant, crystalline Form II of aticaprant, crystalline Form III of aticaprant, or amorphous aticaprant. Sexual functioning may be assessed by using standard scales and techniques such as the Arizona Sexual Experience Scale (ASEX). The ASEX is used to investigate whether crystalline Form I of aticaprant, crystalline Form II of aticaprant, crystalline Form III of aticaprant, or amorphous aticaprant has a further positive or negative effect on sexual function. The ASEX is 5 item rating scale administered to patients that quantifies sexual drive, sexual arousal, vaginal lubrication or penile erection, ability to reach orgasm and satisfaction. Scores range from 5 to 30, and two different versions of the scale are available (males and females).
Patients had their sexual functioning measured using a standard, well accepted rating scale: ASEX. See, Table 68.

subjects with MDD [5] = assay: HAM-A6 total score (anxiety), same study; type: in vivo, human; conditions: Treatment Week 6
Description: The secondary objectives are: • i. […] To investigate the effect of aticaprant versus placebo on depression related anhedonia as assessed by the SHAPS. • iv. To investigate the effect of aticaprant on symptoms of depression using the Clinical Global Impression-Severity (CGI-S), the patient reported Symptoms of Major Depressive Disorder Scale (SMDDS) and the self-assessment of treatment experience (SATE). • V. To investigate the effect of aticaprant on symptoms of anxiety using the HAM-A and on core symptoms of anxiety using the HAM-A6 subscale. • vi. To assess the plasma PK of aticaprant in subjects with MDD and explore its relationship with efficacy and safety parameters.
• (i) Depression: Montgomery-Åsberg Depression Rating Scale (MADRS), Clinical Global Impression-Severity (CGI-S), Symptoms of Major Depressive Disorder Scale (SMDDS), and Self-assessment of treatment experience (SATE) • (ii) Anhedonia: Snaith-Hamilton Pleasure Scale (SHAPS) • (iii) Anxiety: Structured Interview Guide for the Hamilton Anxiety scale (SIGH-A) and HAM-A6 • (iv) Effects on Cognition: The Cognitive and Physical Functioning Questionnaire (CPFQ) • (v) Safety assessments

[6] = Treatment Period, Full Safety Analysis Set, aticaprant 10 mg (N = 85)
[7] = eITT Analysis Set, High anhedonia (SHAPS Total Score at Treatment Baseline >=38), Treatment Week 6
[8] = fITT Analysis Set, High anhedonia (SHAPS Total Score at Treatment Baseline >=38), Treatment Week 6

Compound: Cc1cc(C)cc(C2CCCN2Cc2ccc(Oc3ccc(C(N)=O)cc3F)cc2)c1 (stereo not shown) [aticaprant, 3-fluoro-4-4-2-(3,5-dimethylphenyl) pyrrolidin-1-yl-methylphenoxybenzamide]
- Subjects with 1 or more serious TEAE (subjects with MDD [1]; [6]): 0 n
- Subjects with TEAE leading to death (subjects with MDD [1]; [6]): 0 n
- TEAE of Special Interest: Abdominal Pain Upper (subjects with MDD [1]; [6]): 0 n
- patients who experienced acute cholecystitis (subjects with MDD [1]; treatment period): 0 patients
- subjects who experienced TEAEs of special interest (subjects with MDD [1]; treatment period, 13/85): 15.3%
- subjects who discontinued due to treatment-emergent adverse events (subjects with MDD [1]; treatment period, due to diarrhea, nausea, vomiting and headache): 1 subject
- subjects with TEAE diarrhea (subjects with MDD [1]; treatment period, full safety analysis set, 7/85): 8.2%
- subjects with TEAE headache (subjects with MDD [1]; treatment period, full safety analysis set, 10/85): 11.8%
- subjects who experienced at least one TEAE (subjects with MDD [1]; treatment period, full safety analysis set, 40/85): 47.1%
- Mean weight, mean (SE) ([2]; Lead-in Baseline, n = 85): 78.66 (1.65) kg
- Mean weight, mean (SE) ([2]; Screening, n = 85): 78.42 (1.65) kg
- Mean weight, mean (SE) ([2]; Withdrawal Baseline (after 6 weeks double-blind treatment), n = 85): 78.57 (1.71) kg
- Mean weight Relative % Change ([2]; Withdrawal vs Lead-in, n = 85): −0.11%
- mean weight ([2]; after 6 weeks in the double-blind treatment phase, lead-in baseline 78.66): 78.57 kg
- weight over the 6-week double blind treatment period (in words) ([2]; in vivo): remained relatively stable
- Mean weight Absolute Change (Withdrawal-Lead-in) ([2]; n = 85): -0.09 kg
- MADRS Total Score Effect size (subjects with MDD [3]; [7]): −0.38
- MADRS Total Score Mean Change to Placebo (SD pooled) (subjects with MDD [3]; [7]): −3.4 (8.98)
- MADRS Total Score Effect size (subjects with MDD [3]; eITT Analysis Set, Low anhedonia (SHAPS Total Score at Treatment Baseline >=20 and <38), Treatment Week 6): −0.11
- MADRS Total Score: Mean Change from Baseline (SD) (subjects with MDD [3]; eITT, Treatment Week 1): −3.3
- MADRS Total Score: Mean Change from Baseline (SD) (subjects with MDD [3]; eITT, Treatment Week 3): −5.7
- MADRS Total Score: Mean Change to Placebo (SD pooled) (subjects with MDD [3]; eITT, Treatment Week 4): −0.9 (7.00)
- MADRS Total Score: Mean Change from Baseline (SD) (subjects with MDD [3]; eITT, Treatment Week 4): −7.3
- MADRS Total Score: Mean Change from Baseline (SD) (subjects with MDD [3]; eITT, Treatment Week 5): −8.4
- MADRS Total Score: Mean Change from Baseline (SD) (subjects with MDD [3]; eITT, Treatment Week 6): −10.2 (8.44)
- MADRS: LSMeans difference estimate, supplementary MMRM analysis (COVID-19 impact) (subjects with MDD [3]; eITT): −3.0
- MADRS Total Score Effect size (subjects with MDD [3]; [8]): −0.51
- MADRS Total Score Mean Change to Placebo (SD pooled) (subjects with MDD [3]; [8]): −4.6 (9.03)
- MADRS Total Score Effect size (subjects with MDD [3]; fITT Analysis Set, Low anhedonia (SHAPS Total Score at Treatment Baseline >=20 and <38), Treatment Week 6): −0.29
- MADRS Total Score Change from Baseline LSMean Difference (SE) Treatment-Placebo (subjects with MDD [3]; fITT Analysis Set, Treatment Week 1, MMRM): −1.6 (1.03)
- MADRS Total Score Change from Baseline LSMean Difference (SE) Treatment-Placebo (subjects with MDD [3]; fITT Analysis Set, Treatment Week 3, MMRM): −1.9 (1.04)
- MADRS Total Score Change from Baseline LSMean Difference (SE) Treatment-Placebo (subjects with MDD [3]; fITT Analysis Set, Treatment Week 4, MMRM): −2.5 (1.04)
- MADRS Total Score Change from Baseline LSMean Difference (SE) Treatment-Placebo (subjects with MDD [3]; fITT Analysis Set, Treatment Week 5, MMRM): −2.4 (1.05)
- MADRS Total Score Change from Baseline LSMean Difference (SE) Treatment-Placebo (subjects with MDD [3]; fITT Analysis Set, Treatment Week 6, MMRM): −3.1 (1.05)
- MADRS Total Score: Mean Change to Placebo (SD pooled) (subjects with MDD [3]; fITT, Treatment Week 4): −2.3 (7.02)
- MADRS total score: mean change from treatment baseline (SD) (subjects with MDD [3]; fITT, Treatment Week 6): −9.7 (8.02)
- MADRS Total Score: Least Squares Mean Difference aticaprant vs placebo (subjects with MDD [3]; fITT, Treatment Week 6, MMRM): −3.1
- MADRS: LSMeans difference estimate, supplementary MMRM analysis (COVID-19 impact) (subjects with MDD [3]; fITT): −3.4
- sexual functioning (in words) (subjects with MDD [4]; ASEX): notable improvements
- ASEX score (subjects with MDD [4]; Baseline, n = 85): 21.26
- ASEX total score: mean change from treatment baseline (SD) (subjects with MDD [4]; to week 6, lower score indicates improvement): −1.5 (4.02) points
- HAM-A6 score, aticaprant treated patients vs. placebo (in words) (subjects with MDD [5]): greater improvement
- Change from Treatment Baseline in HAM-A6 Total Score: Arithmetic Mean (SD) (subjects with MDD [5]; aticaprant 10 mg, 59 subjects analyzed): −2.73 ± 2.651 scores on a scale
